Measurements published in article PMC2766634 (Journal of medicinal chemistry, 2009).
Where “and” joins values, the source holds several entries; their conditions need not be identical. Identical values can stand only once. Marks after values point to notes of the source that are not given here.

How the values were obtained:
[1] = tested on: HeLa cells; test: Cytotoxicity assay; format: cell-based, human; settings: Homo sapiens, HeLa, 48 h, read-out: toxicity in HeLa cells, pIC50 (mean ± SE) (converted)
[2] = Cyclic voltammetry in DMSO; format: physicochemical; settings: for E1/2 in DMSO (half-wave potential, 0/−1 reduction), mean ± SE: cyclic voltammetry, 0.10 M NBu4PF6 in DMSO, 25 °C, 100 mV/s; for E1/2 more positive than Mz: in DMSO, relative to Mz
[3] = Cyclic voltammetry in water pH 7.0; format: physicochemical; settings: pH 7.0 phosphate buffer, 0.1 M KCl, 25 °C
[4] = tested on: G. lamblia (WB/C6, GS/M, 106, and 713); test: Antigiardial growth inhibition; format: cell-based, Giardia lamblia; settings: IC50 in HeLa cells / EC50 in Giardia

Structure (SMILES) | E1/2 in DMSO (half-wave potential, 0/−1 reduction), mean ± SE [2] | also measured
CC(=O)OC(c1ccc(Br)cc1)C(OC(C)=O)c1ncc([N+](=O)[O-])n1C (stereo not drawn) [compound 37, 1-(1-Methyl-5-nitro-1H-imidazol-2-yl)-2-(4-bromophenyl)-ethane-1,2-diyl Diacetate] | – | IC50 [1]: 97.7 µM
Cn1cncc1[N+](=O)[O-] [1-methyl-5-NI, reference compound] | −1.557 V vs Fc and −1.557 ± 0.001 V vs Fc | –
Cn1c([N+](=O)[O-])cnc1/C=C/c1ccccc1-c1ccccc1 [compound 24, 2-[(E)-2-Biphenyl-2-ylvinyl]-1-methyl-5-nitro-1H-imidazole] | −1.512 ± 0.001 V vs Fc | –
Cn1c([N+](=O)[O-])cnc1/C=C/c1ccccc1Cl [compound 13, 2-[(E)-2-(2-Chlorophenyl)vinyl]-1-methyl-5-nitro-1H-imidazole] | −1.486 ± 0.004 V vs Fc | –
COc1ccc(/C=C/c2ncc([N+](=O)[O-])n2C)c(OC)c1OC [compound 22, 1-Methyl-5-nitro-2-[(E)-2-(2,3,4-trimethoxyphenyl)vinyl]-1H-imidazole] | −1.584 ± 0.005 V vs Fc | Ep in water (peak potential), mean ± SE [3]: −0.757 ± 0.003 V vs SCE
Cc1cc(C)c(/C=C/c2ncc([N+](=O)[O-])n2C)c(C)c1 [compound 9, 1-Methyl-2-[(E)-2-(2,4,6-trimethylphenyl)vinyl]-5-nitro-1H-imidazole] | −1.529 ± 0.001 V vs Fc | E1/2 more positive than Mz [2]: 30–50 mV; IC50 [1]: 11 µM
Cn1c([N+](=O)[O-])cnc1/C=C/c1cccc2ccccc12 [compound 25, 1-Methyl-2-[(E)-2-(1-naphthyl)vinyl]-5-nitro-1H-imidazole] | −1.502 ± 0.004 V vs Fc | selectivity ratio, IC50/EC50 [4]: 1,000
Cc1ccc(/C=C/c2ncc([N+](=O)[O-])n2C)cc1 [compound 8, 1-Methyl-2-[(E)-2-(4-methylphenyl)vinyl]-5-nitro-1H-imidazole] | −1.522 ± 0.003 V vs Fc | selectivity ratio, IC50/EC50 [4]: >617
Cn1c([N+](=O)[O-])cnc1/C=C/c1cccs1 [compound 30, 1-Methyl-5-nitro-2-[(E)-2-(2-thienyl)vinyl]-1H-imidazole] | −1.528 ± 0.003 V vs Fc | Ep in water (peak potential), mean ± SE [3]: −0.658 ± 0.001 V vs SCE; selectivity ratio, IC50/EC50 [4]: 1,122
Cc1cccc(/C=C/c2ncc([N+](=O)[O-])n2C)c1 [compound 7, 1-Methyl-2-[(E)-2-(3-methylphenyl)vinyl]-5-nitro-1H-imidazole] | −1.516 ± 0.001 V vs Fc | Ep in water (peak potential), mean ± SE [3]: −0.635 ± 0.003 V vs SCE
COc1cccc(/C=C/c2ncc([N+](=O)[O-])n2C)c1 [compound 20, 2-[(E)-2-(3-Methoxyphenyl)vinyl]-1-methyl-5-nitro-1H-imidazole] | −1.580 ± 0.007 V vs Fc | Ep in water (peak potential), mean ± SE [3]: −0.763 ± 0.001 V vs SCE
Cn1c([N+](=O)[O-])cnc1/C=C/c1ccc(OC(F)(F)F)cc1 [compound 21, 1-Methyl-5-nitro-2-{(E)-2-[4-(trifluoromethoxy)phenyl]vinyl}-1H-imidazole] | −1.487 ± 0.001 V vs Fc | –
Cn1c([N+](=O)[O-])cnc1/C=C/c1ccsc1 [compound 31, 1-Methyl-5-nitro-2-[(E)-2-(3-thienyl)vinyl]-1H-imidazole] | −1.508 ± 0.002 V vs Fc | Ep in water (peak potential), mean ± SE [3]: −0.595 ± 0.001 V vs SCE; selectivity ratio, IC50/EC50 [4]: >1,023
Cc1ccccc1/C=C/c1ncc([N+](=O)[O-])n1C [compound 6, 1-Methyl-2-[(E)-2-(2-methylphenyl)vinyl]-5-nitro-1H-imidazole] | −1.512 ± 0.001 V vs Fc | Ep in water (peak potential), mean ± SE [3]: −0.621 ± 0.001 V vs SCE; IC50 [1]: 93.3 µM
Cn1c([N+](=O)[O-])cnc1/C=C/c1cccc(I)c1 [compound 18, 2-[(E)-2-(3-Iodophenyl)vinyl]-1-methyl-5-nitro-1H-imidazole] | −1.494 ± 0.004 V vs Fc | IC50 [1]: 31.6 µM
Cn1c([N+](=O)[O-])cnc1/C=C/c1ccc(Cl)cc1Cl [compound 16, 2-[(E)-2-(2,4-Dichlorophenyl)vinyl]-1-methyl-5-nitro-1H-imidazole] | −1.469 ± 0.002 V vs Fc | E1/2 more positive than Mz [2]: ~ 90 mV
Cn1c([N+](=O)[O-])cnc1CCc1ccccc1 [compound 40, 1-Methyl-5-nitro-2-(2-phenylethyl)-1H-imidazole] | −1.593 ± 0.002 V vs Fc | –

Further lines, with some results ahead:

E1/2 in DMSO (half-wave potential, 0/−1 reduction), mean ± SE [2] | Structure (SMILES) | also measured
−1.592 ± 0.003 V vs Fc | Cc1ccc(CCc2ncc([N+](=O)[O-])n2C)cc1 [compound 41, 1-Methyl-2-[2-(4-methylphenyl)ethyl]-5-nitro-1H-imidazole] | –
−1.481 ± 0.001 V vs Fc | Cn1c([N+](=O)[O-])cnc1/C=C/c1ccccc1Br [compound 10, 2-[(E)-2-(2-Bromophenyl)vinyl]-1-methyl-5-nitro-1H-imidazole] | –
−1.544 ± 0.001 V vs Fc | Cn1c([N+](=O)[O-])cnc1C(O)C(O)c1ccc(Br)cc1 (stereo not drawn) [compound 35, 1-(4-Bromophenyl)-2-(1-methyl-5-nitro-1H-imidazol-2-yl)-ethane-1,2-diol] | –
−1.497 ± 0.005 V vs Fc | Cn1c([N+](=O)[O-])cnc1/C=C/c1cccc(Br)c1 [compound 11, 2-[(E)-2-(3-Bromophenyl)vinyl]-1-methyl-5-nitro-1H-imidazole] | –
−1.592 ± 0.003 V vs Fc | Cn1c([N+](=O)[O-])cnc1CCc1ccc(Br)cc1 [compound 42, 2-[2-(4-Bromophenyl)ethyl]-1-methyl-5-nitro-1H-imidazole] | IC50 [1]: 97.7 µM
−1.518 ± 0.003 V vs Fc | CCOC(OCC)c1ccc(/C=C/c2ncc([N+](=O)[O-])n2C)cc1 [compound 23, 2-{(E)-2-[4-(Diethoxymethyl)phenyl]vinyl}-1-methyl-5-nitro-1H-imidazole] | IC50 [1]: 97.7 µM
−1.557 ± 0.001 V vs Fc | Cc1ccc(C(O)C(O)c2ncc([N+](=O)[O-])n2C)cc1 (stereo not drawn) [compound 34, 1-(1-Methyl-5-nitro-1H-imidazol-2-yl)-2-(4-methylphenyl)-ethane-1,2-diol] | –
−1.492 ± 0.002 V vs Fc | Cn1c([N+](=O)[O-])cnc1/C=C/c1cccc(Cl)c1 [compound 14, 2-[(E)-2-(3-Chlorophenyl)vinyl]-1-methyl-5-nitro-1H-imidazole] | –
−1.503 ± 0.001 V vs Fc | Cn1c([N+](=O)[O-])cnc1/C=C/c1ccc(Cl)cc1 [compound 15, 2-[(E)-2-(4-Chlorophenyl)vinyl]-1-methyl-5-nitro-1H-imidazole] | Ep in water (peak potential), mean ± SE [3]: −0.584 ± 0.001 V vs SCE
−1.493 ^d ± 0.004 V vs Fc | Cn1c([N+](=O)[O-])cnc1C(Br)C(Br)c1ccc(Br)cc1 (stereo not drawn) [compound 33, 2-[1,2-Dibromo-2-(4-bromophenyl)ethyl]-1-methyl-5-nitro-1H-imidazole] | –
